{"source": "patent US20080300182A1", "about": "“Eye disease treating agent and method for treating eye disease” (NIDEK CO., LTD., priority 2005, published 2008)", "key": {"retinal ganglion cell [1]": {"tested_on": "retinal ganglion cell", "experiment": "Kainic acid-induced retinal ganglion cell death model, number of cells remaining in the ganglion cell layer (Test Example 4)", "type": "in vivo, rat", "description": "Retinal nerve protecting effect was examined using a kainic acid-induced retinal ganglion cell death animal model.\nMale Wister/ST rats of 8 weeks of age were used in the test. After anesthesia by intraperitoneal administration of pentobarbital sodium, PACAP 38 (10 μmol) dissolved in sterile physiological saline or the administration solvent (physiological saline) as the negative control was injected once into the vitreous body in the same manner as in Test Example 3. Two days after the PACAP administration, kainic acid (5 nmol) was injected once into the vitreous body of each animal under anesthesia by a mixed liquid of ketamine and seractal. 7 days after the kainic acid administration, all animals were sacrificed by bleeding through the cutting of abdominal aorta under diethyl ether inhalation anesthesia and their eyeballs were enucleated. The enucleated eyeballs were fixed by soaking in a 1% formaldehyde-1.25% glutaraldehyde mixed fixing liquid. The fixed eyeballs were embedded in paraffin, and then retinal tissue sections of 4 μm in thickness traversing the optic disc were prepared and subjected to hematoxylin eosin staining. Effect of PACAP was judged by counting the number of cells remaining in the ganglion cell layer within a region of from 0.5 to 1.7 mm from the optic disc of each tissue specimen. […]"}, "[2]": {"tested_on": "Muller cell of the retina", "experiment": "IL-6 expression in retinal tissue after administration into the vitreous body, anti-IL-6 immunostaining (Test Example 3)", "type": "in vivo, rat", "conditions": "10^−11 mol PACAP", "description": "The PACAP 38 was dissolved in sterile physiological saline to a concentration of 3.3 nmol/ml. This was stored under ice-cooling until just before the administration.\nMale Wister/ST rats of 8 weeks of age were used in this test. After anesthesia by intraperitoneal administration of pentobarbital sodium, 3 μl per one eye of the administration liquid was injected from about 1 mm behind the limbus using a Hamilton glass syringe equipped with a 30G needle, that is, the liquid was injected into the vitreous body in such a manner that 10^−11 mol of PACAP reached the retina. After 1, 2, 3 and 7 days of the PACAP administration, each animal was sacrificed by bleeding through the cutting of abdominal aorta under diethyl ether inhalation anesthesia, and then both eyeballs were enucleated, and fixed with ice-cold 4% paraformaldehyde-0.1 M phosphate buffer (pH 7.4). The fixed eyeballs were subjected to sucrose replacement and then freeze-embedded to prepare frozen sections of 10 μm in thickness. By applying fluorescence immunostaining to each of the frozen sections using an anti-IL-6 antibody, expression of IL-6 in the retina was observed."}, "cultured rat Muller cell": {"tested_on": "cultured rat Muller cell", "experiment": "IL-6 production acceleration effect in cultured Muller cell (Test Example 1; IL-6 measured by B9 cell bioassay)", "type": "cell-based", "conditions": "24 hours after addition of PACAP 38 (10^−12 M, 10^−9 M to 10^−6 M), vs no addition, p<0.01", "description": "Wister/ST rats of 14 days of age (20 animals) were sacrificed by bleeding through the cutting of abdominal aorta under diethyl ether anesthesia. The 40 eyeballs were immediately enucleated and soaked in Dulbecco's modified minimum essential medium (DMEM) containing 25 mM HEPES and antibiotics (penicillin 100 U/ml, streptomycin 100 μg/ml, amphotericin B 0.25 μg/ml), one night at room temperature under shade. Next, the eyeballs were transferred into DMEM containing 0.1% trypsin and 70 U/ml collagenase and incubated at 37° C. for 60 minutes. Thereafter, retinas were removed from the eyeballs and transferred into DMEM supplemented with antibiotics and 10% FBS (medium for culturing use) (8 retinas/10 ml DMEM). The retinas were dispersed and suspended until they became small aggregates through the pipetting using a Pasteur pipette having thinned tip. This cell suspension was seeded onto a polystyrene dish (Asahi Techno Glass) and cultured by keeping at 37° C. under an environment of 5% CO2/95% air. […]\nThe IL-6 concentration in the thus recovered Muller cell culture supernatant was measured using B9 cell which is a hybridoma sub-clone of an IL-6-dependent mouse. […] Regarding the bioassay of IL-6, growth of B9 cell was determined as the fluorescence intensity by Alamar Blue."}, "retinal ganglion cell [3]": {"tested_on": "retinal ganglion cell", "experiment": "Kainic acid-induced retinal ganglion cell death model, retinal tissue pNF-H content by sandwich ELISA (Test Example 5)", "type": "in vivo, rat", "conditions": "7 days after exposure", "source_text": "In order to clarify whether or not the IL-6 which is expressed in a delayed manner in Muller cell (Test Example 3) is concerned in the retinal ganglion cell death inhibitory effect of PACAP confirmed in Test Example 4, this was verified using the same animal model and using neurofilament (phosphorylated neurofilament-H; pNF-H) protein in the retinal tissue as the index. It is known that pNF-H is a protein which is specifically expressed in the retinal ganglion cell, and that the content of this protein in the retinal tissue can be used as a quantitative index for estimating degree of the retinal ganglion cell death.\nA group in which 10 μmol of PACAP 38 is injected into the vitreous body 2 days before the kainic acid exposure in the same manner as in Test Example 4 (pretreatment group) and another group in which the same amount of PACAP is injected simultaneously with kainic acid (simultaneous treatment group) were set up as the test groups. The retinal tissue was collected 7 days after the kainic acid exposure, and the pNF-H protein was extracted. Amount of the pNF-H protein in retinal tissue was measured by the sandwich ELISA."}}, "note": "Ends that are not written are not given here."}
{"substance": "pituitary adenylate cyclase-activating polypeptide (HSDGIFTDSYSRYRKQMAVKKYLAAVLGKRYKQRVKNK; ends and bridges not checked; listed as Ovis sp.) [PACAP 38]", "values": [{"measurement": "Average value of the number of cells remaining in the ganglion cell layer", "setting": "retinal ganglion cell [1]; PACAP 38 (10 μmol) intravitreal 2 days before kainic acid (5 nmol), 7 days after kainic acid, 0.5 to 1.7 mm from optic disc", "result": 34.8, "unit": "cells/mm"}, {"measurement": "inhibition of the reduction of the number of cells caused by kainic acid", "setting": "retinal ganglion cell [1]; PACAP 38 (10 μmol) intravitreal 2 days before kainic acid, vs physiological saline control, p<0.05", "result": "found with a significance"}, {"measurement": "Expression of IL-6 in the retina", "setting": "[2]; 1 day after intravitreal administration", "result": "not found"}, {"measurement": "IL-6-positive cell in the retina", "setting": "[2]; 2 days after intravitreal administration", "result": "frequently observed"}, {"measurement": "IL-6-positive cell in the retina", "setting": "[2]; 3 days after intravitreal administration", "result": "frequently observed"}, {"measurement": "Expression of IL-6 in the retina", "setting": "[2]; 7 days after intravitreal administration", "result": "hardly observed"}, {"measurement": "IL-6 concentration in the culture liquid", "setting": "cultured rat Muller cell", "result": "significantly increased"}, {"measurement": "reduction of the amount of pNF-H protein in the retinal tissue induced by kainic acid", "setting": "retinal ganglion cell [3]; pretreatment group: 10 μmol PACAP 38 intravitreal 2 days before kainic acid, vs saline, p<0.01", "result": "inhibited with a significance"}, {"measurement": "effect to inhibit reduction of the amount of pNF-H", "setting": "retinal ganglion cell [3]; simultaneous treatment group: 10 μmol PACAP 38 injected simultaneously with kainic acid", "result": "completely absent"}]}
